Reference: US20260315476A1, “COMBINATION TREATMENT METHODS FOR CANCER WITH TP53 MUTATION” (HO'OLA THERAPEUTICS INC., priority 2022, published 2026)
Read-outs that look alike come from different tables or passages of the source.

Tests used:
[1] = test system: chronic lymphocytic leukemia (CLL); assay: Clinical response rates in CLL (Phase 1/2 study, Parts 1 & 2 and Part 3); assay type: in vivo, human
Experimental: (§1) In Phase 1 study (Part 1), patients with relapsed/refractory (R/R) mantle cell lymphoma (MCL) and R/R chronic lymphocytic leukemia/small lymphocytic lymphoma (CLL/SLL) were enrolled (CLL n=18, MCL n=12). 2, 4, 8, and 16 mg/kg and 300 mg and 600 mg doses of zilovertamab (formerly known as cirmtuzumab) were evaluated. Ibrutinib was added to the treatment after 1 month at dose of 420 mg for CLL, 560 mg for MCL. The recommended dosing regime was 600 mg of zilovertamab (i.v.) once every 2 weeks by three times and then once every 4 weeks in combination with ibrutinib at approved doses per indication (i.e., 420 mg for CLL, 560 mg for MCL).
(§2) In Phase 2 study, patients were divided into two study groups. In study group 1 (Part 2), patients with R/R CLL, R/R MCL, and marginal zone lymphoma (MZL) were enrolled (CLL n=16, MCL n=21). The patients were treated with the recommended dosing regimen from Phase 1 study, that is, zilovertamab (600 mg) and ibrutinib at approved dose (420 mg CLL, 560 mg MCL and MZL). In study group 2 (Part 3), patients with R/R CLL (n=31) were enrolled and randomly treated with either zilovertamab in combination with ibrutinib or ibrutinib alone.

[2] = test system: mantle cell lymphoma (MCL); assay: Overall survival in MCL; assay type: in vivo, human; settings: MCL patients
Experimental: as §1, §2

[3] = test system: chronic lymphocytic leukemia (CLL); assay: Overall survival in CLL; assay type: in vivo, human; settings: CLL patients
Experimental: as §1, §2

[4] = Treatment emergent adverse events, CLL Part 3; assay type: in vivo, human
Experimental: as §2

[5] = Patient disposition and overall tolerability; assay type: in vivo, human; settings: CLL Part 3
Experimental: as §1, §2

[6] = test system: mantle cell lymphoma (MCL); settings: historical, cited from earlier work
[7] = test system: chronic lymphocytic leukemia (CLL); assay: Clinical response rates in CLL (Phase 1/2 study, Parts 1 & 2 and Part 3); assay type: in vivo, human; settings: Part 3, TN
[8] = test system: mantle cell lymphoma (MCL); settings: historical, cited from earlier work; remark: listed apart in the source
[9] = test system: chronic lymphocytic leukemia (CLL); settings: Byrd 2019, cited from earlier work
[10] = test system: mantle cell lymphoma (MCL); settings: MCL Rule 2017, Relapsed/Refractory, N = 370; cited from earlier work
[11] = MCL patients treated with BTKi (e.g., ibrutinib) alone; cited from earlier work
[12] = Rule 2019, No p53 mutation, N = 124
[13] = Rule 2019, p53 mutation, N = 20

With `C=CC(=O)N1CCC[C@@H](n2nc(-c3ccc(Oc4ccccc4)cc3)c3c(N)ncnc32)C1` [ibrutinib, 1-[(3R)-3[4-Amino-3-(4-phenoxyphenyl)-1H-pyrazolo[3,4-d]pyrimidin-1-yl]piperidin-1-yl]prop-2-en-1-one] the “Complete Response (CR)” value ([1]; CLL Part 3) was 1 (14.3) n (%), the “Median Duration of response (95% CI)” value ([1]; CLL Part 3) was “NR (8.3, NE)” and the “Overall Response Rate (ORR)” value ([1]; CLL Part 3) was 7 (100.0) n (%). For the same compound, the “Partial Response (PR)” value ([1]; CLL Part 3) was 6 (85.7) n (%), the CR ([1]; Part 3, 1 Prior) was 0 n and the PD ([1]; Part 3, 1 Prior) was 0 n. The PD ([1]; Part 3, Overall) was 0 n, the CR ([1]; Part 3, ≥3 Prior) was 0 n and the “Median DoR” value ([1]; Part 3, ≥3 Prior) was 8.3 months. The PD ([1]; Part 3, ≥3 Prior) was 0 n, the “median OS” value [2] was “not reached” and the “median OS” value [3] was “not reached”. For the same compound, the “Atrial Fibrillation, Grades 1-2” value [4] was 1 (10.0) n (%), the “Atrial Fibrillation, Grades ≥3” value [4] was 1 (10.0) n (%) and the “Atrial Fibrillation, Overall” value [4] was 2 (20.0) n (%). The “Back pain, Grades 1-2” value [4] was 2 (20.0) n (%), the “Back pain, Grades ≥3” value [4] was 0 n (%) and the “Back pain, Overall” value [4] was 2 (20.0) n (%). The “Constipation, Grades 1-2” value [4] was 3 (30.0) n (%), the “Constipation, Grades ≥3” value [4] was 0 n (%) and the “Constipation, Overall” value [4] was 3 (30.0) n (%). For the same compound, the “Contusion, Grades 1-2” value [4] was 3 (30.0) n (%), the “Contusion, Grades ≥3” value [4] was 0 n (%) and the “Contusion, Overall” value [4] was 3 (30.0) n (%). For the same compound, the “Coronavirus Infection, Grades 1-2” value [4] was 1 (10.0) n (%), the “Coronavirus Infection, Grades ≥3” value [4] was 1 (10.0) n (%) and the “Coronavirus Infection, Overall” value [4] was 2 (20.0) n (%). For the same compound, the “Diarrhea, Grades 1-2” value [4] was 4 (40.0) n (%), the “Diarrhea, Grades ≥3” value [4] was 0 n (%) and the “Diarrhea, Overall” value [4] was 4 (40.0) n (%). The “Dizziness, Grades 1-2” value [4] was 3 (30.0) n (%), the “Dizziness, Grades ≥3” value [4] was 0 n (%) and the “Dizziness, Overall” value [4] was 3 (30.0) n (%). For the same compound, the “Fall, Grades 1-2” value [4] was 2 (20.0) n (%), the “Fall, Grades ≥3” value [4] was 0 n (%) and the “Fall, Overall” value [4] was 2 (20.0) n (%). The “Fatigue, Grades 1-2” value [4] was 2 (20.0) n (%), the “Fatigue, Grades ≥3” value [4] was 0 n (%) and the “Fatigue, Overall” value [4] was 2 (20.0) n (%). For the same compound, the “Headache, Grades 1-2” value [4] was 3 (30.0) n (%), the “Headache, Grades ≥3” value [4] was 1 (10.0) n (%) and the “Headache, Overall” value [4] was 4 (40.0) n (%). The “Hematuria, Grades 1-2” value [4] was 3 (30.0) n (%), the “Hematuria, Grades ≥3” value [4] was 0 n (%) and the “Hematuria, Overall” value [4] was 3 (30.0) n (%). For the same compound, the “Hemoglobin decrease, Grades 1-2” value [4] was 6 (60.0) n (%), the “Hemoglobin decrease, Grades ≥3” value [4] was 1 (10.0) n (%) and the “Hemoglobin decrease, Overall” value [4] was 7 (70.0) n (%). The “Hypertension, Grades 1-2” value [4] was 1 (10.0) n (%), the “Hypertension, Grades ≥3” value [4] was 1 (10.0) n (%) and the “Hypertension, Overall” value [4] was 2 (20.0) n (%). For the same compound, the “Muscle spasms, Grades 1-2” value [4] was 2 (20.0) n (%), the “Muscle spasms, Grades ≥3” value [4] was 0 n (%) and the “Muscle spasms, Overall” value [4] was 2 (20.0) n (%). For the same compound, the “Nausea, Grades 1-2” value [4] was 3 (30.0) n (%), the “Nausea, Grades ≥3” value [4] was 0 n (%) and the “Nausea, Overall” value [4] was 3 (30.0) n (%). For the same compound, the “Neutrophils decrease, Grades 1-2” value [4] was 1 (10.0) n (%), the “Neutrophils decrease, Grades ≥3” value [4] was 2 (20.0) n (%) and the “Neutrophils decrease, Overall” value [4] was 3 (30.0) n (%). For the same compound, the “Platelets decrease, Grades 1-2” value [4] was 7 (70.0) n (%), the “Platelets decrease, Grades ≥3” value [4] was 1 (10.0) n (%) and the “Platelets decrease, Overall” value [4] was 8 (80.0) n (%). The “Pneumonia, Grades 1-2” value [4] was 0 n (%), the “Pneumonia, Grades ≥3” value [4] was 2 (20.0) n (%) and the “Pneumonia, Overall” value [4] was 2 (20.0) n (%). The “Pruritis, Grades 1-2” value [4] was 2 (20.0) n (%), the “Pruritis, Grades ≥3” value [4] was 0 n (%) and the “Pruritis, Overall” value [4] was 2 (20.0) n (%). For the same compound, the “Upper respiratory tract infection, Grades 1-2” value [4] was 3 (30.0) n (%), the “Upper respiratory tract infection, Grades ≥3” value [4] was 0 n (%) and the “Upper respiratory tract infection, Overall” value [4] was 3 (30.0) n (%). The “Study discontinuation: Death” value [5] was 0 n, the CR ([6]; Rule 2017, N = 370) was 74 (20.0) n (%) and the ORR ([6]; Rule 2017, N = 370) was 234 (63.2) n (%). For the same compound, the PD ([6]; Rule 2017, N = 370) was 86 (23.2) n (%), the CR [6, 12] was 31 (25.0) n (%) and the ORR [6, 12] was 87 (70.2) n (%). For the same compound, the PR [6, 12] was 56 (45.2) n (%), the CR [6, 13] was 0 n (%) and the ORR [6, 13] was 11 (55.0) n (%). The PR [6, 13] was 11 (55.0) n (%), the CR [7] was 0 n and the PD [7] was 0 n. For the same compound, the “M PFS (95% CI)” value ([8]; Rule 2019, No p53 Mutation) was 12.0 (7.1, 15.6), the “M PFS (95% CI)” value ([8]; Rule 2019, p53 Mutation) was 4.0 (2.1, 8.3) and the “Landmark PFS” value ([9]; 24 months, 1 or 2 prior systemic therapies) was ~82%. The “Landmark PFS” value ([9]; 24 months, >2 prior systemic therapies) was ~65%, the “Landmark PFS” value ([9]; 36 months, 1 or 2 prior systemic therapies) was ~73% and the “Landmark PFS” value ([9]; 36 months, >2 prior systemic therapies) was ~50%. The “median OS” value [10] was 25.0 and the “Grade 3 or 4 neutrophil decrease” value [11] was 29%.
